This assay has as its system P388 leukemia ip, CD2F1 mice, survival T/C. Put plainly: NCI In Vivo Anticancer Drug Screen. Data for tumor model P388 Leukemia (intraperitoneal) in CD2F1 (CDF1) mice. The following applies: endpoint: median survival time, higher = longer survival. The essentials: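 Mice carrying the transplanted tumor received test compound or vehicle. Survival was recorded in each group, and the value is the treated-group measurement divided by that of the vehicle-treated control group.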

Setting [1] is: dose: 50.0 mg/kg/injection, schedule: Q01DX005 (ip), vehicle: Klucel (hydroxypropylcellulose) (HPC).
Where [2] appears, read: dose: 100.0 mg/kg/injection, schedule: Q01DX005 (ip), vehicle: Klucel (hydroxypropylcellulose) (HPC).
The mark [3] stands for this setting: dose: 200.0 mg/kg/injection, schedule: Q01DX005 (ip), vehicle: Klucel (hydroxypropylcellulose) (HPC).
Setting [4] is: dose: 50.0 mg/kg/injection, schedule: Q01DX009 (ip), vehicle: saline.
Where [5] appears, read: dose: 100.0 mg/kg/injection, schedule: Q01DX009 (ip), vehicle: saline.
Where [6] appears, read: dose: 200.0 mg/kg/injection, schedule: Q01DX009 (ip), vehicle: saline.
The mark [7] stands for this setting: dose: 25.0 mg/kg/injection, schedule: Q01DX009 (ip), vehicle: distilled water + Tween-80.
[8] abbreviates: dose: 50.0 mg/kg/injection, schedule: Q01DX009 (ip), vehicle: distilled water + Tween-80.
Where [9] appears, read: dose: 100.0 mg/kg/injection, schedule: Q01DX009 (ip), vehicle: distilled water + Tween-80.
Setting [10] is: dose: 50.0 mg/kg/injection, schedule: Q04DX002 (ip), vehicle: saline with Tween-80.
[11] abbreviates: dose: 50.0 mg/kg/injection, schedule: Q01DX009 (ip), vehicle: saline with Tween-80.
Where [12] appears, read: dose: 100.0 mg/kg/injection, schedule: Q01DX009 (ip), vehicle: saline with Tween-80.
The mark [13] stands for this setting: dose: 200.0 mg/kg/injection, schedule: Q01DX009 (ip), vehicle: saline with Tween-80.
[14] abbreviates: dose: 60.0 mg/kg/injection, schedule: Q01DX005 (ip), vehicle: saline with Tween-80.
[15] abbreviates: dose: 120.0 mg/kg/injection, schedule: Q01DX005 (ip), vehicle: saline with Tween-80.
[16] abbreviates: dose: 240.0 mg/kg/injection, schedule: Q01DX005 (ip), vehicle: saline with Tween-80.
The mark [17] stands for this setting: dose: 15.0 mg/kg/injection, schedule: Q01DX005 (ip), vehicle: saline with Tween-80.
Setting [18] is: dose: 50.0 mg/kg/injection, schedule: Q01DX009 (ip), vehicle: suspension in saline.
[19] abbreviates: dose: 100.0 mg/kg/injection, schedule: Q01DX009 (ip), vehicle: suspension in saline.
[20] abbreviates: dose: 200.0 mg/kg/injection, schedule: Q01DX009 (ip), vehicle: suspension in saline.

Several values for one entry are separate records, joined by “and”; a condition that tells them apart may be missing. Equal entries are not always repeated. Inconclusive results and toxic doses are left out.

As to `C(=NCCC[Si]12OCCN(CCO1)CCO2)c1ccco1`, the T/C was 113 % of control under setting [1], 105 % of control under setting [2] and 105 % of control under setting [3].

For the compound `CC(C(=O)c1ccc(Cl)cc1)c1ccccc1` (stereo not drawn), the T/C was 96 % of control under setting [4], 105 % of control under setting [5] and 99 % of control under setting [6].

Take `CCC[As](CCC)SC1CCC2(C)C(=CCC3C4CCC(=O)C4(C)CCC32)C1` (stereo not drawn): the T/C was 98 % of control (dose: 12.5 mg/kg/injection, schedule: Q01DX009 (ip), vehicle: distilled water + Tween-80); 98 % of control under setting [7]; 95 % of control under setting [8]; 92 % of control under setting [9]; 98 % of control (dose: 200.0 mg/kg/injection, schedule: Q01DX009 (ip), vehicle: distilled water + Tween-80).

Regarding `CCCCCC(O)C1C(=O)OC(C)C(O)/C=C/C=C/C=C/C=C\C=C(\C)C(O)CC(O)CC(O)CC(O)CC(O)CC(O)CC1O` (stereo not drawn), the T/C (dose: 10.0 mg/kg/injection, schedule: Q04DX003 (ip), vehicle: other) is 104 % of control; the T/C (dose: 20.0 mg/kg/injection, schedule: Q04DX003 (ip), vehicle: other) was 95 % of control; the T/C (dose: 50.0 mg/kg/injection, schedule: Q01DX005 (ip), vehicle: saline with Tween-80) was 108 % of control; the T/C (dose: 100.0 mg/kg/injection, schedule: Q01DX005 (ip), vehicle: saline with Tween-80) was 107 % of control; the T/C (dose: 200.0 mg/kg/injection, schedule: Q01DX005 (ip), vehicle: saline with Tween-80) is 103 % of control.

As for `c1ccc(C23CCCCC2=Nc2ccccc23)cc1` (stereo not drawn), the T/C is, setting by setting: (dose: 50.0 mg/kg/injection, schedule: Q01DX005 (ip), vehicle: saline) 104 % of control; (dose: 100.0 mg/kg/injection, schedule: Q01DX005 (ip), vehicle: saline) 105 % of control; (dose: 200.0 mg/kg/injection, schedule: Q01DX005 (ip), vehicle: saline) 107 % of control.

As to `c1ccc(-c2n[se]c(-c3ccccc3)n2)cc1`, the T/C was 102 % of control (dose: 12.5 mg/kg/injection, schedule: Q04DX002 (ip), vehicle: saline with Tween-80); 95 % of control (dose: 25.0 mg/kg/injection, schedule: Q04DX002 (ip), vehicle: saline with Tween-80); 93 % of control under setting [10].

With `CC1OC(O)C(O)C(O)C1O` (stereo not drawn), the T/C is 101 % of control under setting [1], 93 % of control under setting [2] and 104 % of control under setting [3].

With `O=C1NC(=O)C2(CCCc3ccc([N+](=O)[O-])cc32)N1` (stereo not drawn), the T/C by setting is: under setting [11], 99 % of control; under setting [12], 99 % of control; under setting [13], 97 % of control.

For the compound `c1ccc(-n2ncc3ccc4cccn4c32)cc1`, the T/C reads like this: under setting [14], 108 % of control; under setting [15], 111 % of control; under setting [16], 120 % of control.

Regarding `CN1CCN(C2=NS(=O)(=O)c3cc(Cl)ccc3N2)CC1`, the T/C is, setting by setting: under setting [11], 104 % of control; under setting [12], 104 % of control; under setting [13], 91 % of control.

Consider `COc1ccc(C(C)=O)cc1CN1CCN(Cc2cc(C(C)=O)ccc2OC)CC1`, for which the T/C runs as follows: under setting [1], 104 % of control; under setting [2], 105 % of control; under setting [3], 99 % of control.

As for `COc1ccc(/C=N/NC(=O)c2ccncc2)cc1F`, the T/C under setting [17] is 100 % of control; the T/C (dose: 30.0 mg/kg/injection, schedule: Q01DX005 (ip), vehicle: saline with Tween-80) was 99 % of control; the T/C under setting [14] was 101 % of control and 88 % of control; the T/C under setting [15] was 88 % of control; the T/C under setting [16] is 95 % of control.

For the compound `Cc1cc(N2C(=O)CSC2=S)ccc1Cl`, the T/C by setting is: under setting [18], 105 % of control; under setting [19], 99 % of control; under setting [20], 106 % of control.

With `CC1C(=O)OC2C1CCC1(C)C=C(Cl)C(=O)C(C)(Cl)C21O` (stereo not drawn), the T/C is, setting by setting: under setting [10], 111 % of control; (dose: 100.0 mg/kg/injection, schedule: Q04DX002 (ip), vehicle: saline with Tween-80) 107 % of control; (dose: 200.0 mg/kg/injection, schedule: Q04DX002 (ip), vehicle: saline with Tween-80) 100 % of control.

For `CCC(=N\N=C(N)N)/C(CC)=N/N=C(N)N`, the T/C runs as follows: under setting [14], 101 % of control; under setting [15], 97 % of control.

`CC(C)(C)N=C(CCN1CCN(c2ccccc2)CC1)Nc1c(Cl)cccc1Cl`: the T/C runs as follows: (dose: 12.5 mg/kg/injection, schedule: Q01DX009 (ip), vehicle: saline) 91 % of control; (dose: 25.0 mg/kg/injection, schedule: Q01DX009 (ip), vehicle: saline) 97 % of control; under setting [11], 94 % of control; under setting [4], 100 % of control; under setting [12], 96 % of control.

As for `CN1/C(=C2\C=CC=C\C2=N/S(=O)(=O)c2ccc(Cl)cc2)Sc2ccccc21`, the T/C runs as follows: (dose: 100.0 mg/kg/injection, schedule: Q04DX003 (ip), vehicle: saline) 103 % of control; (dose: 200.0 mg/kg/injection, schedule: Q04DX003 (ip), vehicle: saline) 104 % of control; (dose: 400.0 mg/kg/injection, schedule: Q04DX003 (ip), vehicle: saline) 99 % of control.

As to `CCCOC(=O)Nc1ccc2nc(N(C)C)sc2c1`, the T/C under setting [18] is 99 % of control, the T/C under setting [19] was 97 % of control and the T/C under setting [20] is 102 % of control.

As to `O=C(O)/C=N/NS(=O)(=O)/C=C/c1ccccc1`, the T/C by setting is: under setting [7], 166 % of control; under setting [8], 172 % of control; under setting [9], 112 % of control.

Take `O=C(NCCCCCCNC(=O)c1ccccc1)c1ccccc1`: the T/C is 100 % of control and 90 % of control under setting [1]; 107 % of control and 86 % of control under setting [2]; 89 % of control and 90 % of control under setting [3].

For `COc1cc2c(c3oc(=O)cc(CCC(=O)O)c13)C1CC(=O)OC1O2` (stereo not drawn), the T/C is 101 % of control (dose: 8.75 mg/kg/injection, schedule: Q01DX005 (ip), vehicle: Klucel (hydroxypropylcellulose) (HPC)); 100 % of control (dose: 17.5 mg/kg/injection, schedule: Q01DX005 (ip), vehicle: Klucel (hydroxypropylcellulose) (HPC)); 97 % of control (dose: 35.0 mg/kg/injection, schedule: Q01DX005 (ip), vehicle: Klucel (hydroxypropylcellulose) (HPC)).

On to `N#C/C(=C\c1ccccn1)c1ccc(Cl)cc1`, for which the T/C by setting is: (dose: 18.75 mg/kg/injection, schedule: Q01DX009 (none), vehicle: saline) 100 % of control; (dose: 37.5 mg/kg/injection, schedule: Q01DX009 (none), vehicle: saline) 99 % of control; (dose: 75.0 mg/kg/injection, schedule: Q01DX009 (none), vehicle: saline) 90 % of control.

Take `Cc1cc(C)nc(/C=C/c2ccc(/C=C/c3cc(C)cc(C)n3)cc2)c1`: the T/C reads like this: under setting [14], 97 % of control; under setting [15], 87 % of control; under setting [16], 92 % of control.

As for `COC(=O)c1cn(C2OC(CO)C(O)C2O)c2ncnc(N)c12` (stereo not drawn), the T/C was 103 % of control (dose: 3.75 mg/kg/injection, schedule: Q01DX005 (ip), vehicle: saline with Tween-80); 104 % of control (dose: 7.5 mg/kg/injection, schedule: Q01DX005 (ip), vehicle: saline with Tween-80); 117 % of control and 98 % of control under setting [17]; 100 % of control under setting [14].

As to `OC1CCCC1NC1CCCCC1` (stereo not drawn), the T/C (dose: 15.0 mg/kg/injection, schedule: Q01DX005 (ip), vehicle: Klucel (hydroxypropylcellulose) (HPC)) was 102 % of control; the T/C (dose: 30.0 mg/kg/injection, schedule: Q01DX005 (ip), vehicle: Klucel (hydroxypropylcellulose) (HPC)) was 102 % of control; the T/C (dose: 60.0 mg/kg/injection, schedule: Q01DX005 (ip), vehicle: Klucel (hydroxypropylcellulose) (HPC)) is 104 % of control.

On to `C=C(C)C(=O)N(CC)CC`, for which the T/C runs as follows: under setting [5], 97 % of control; under setting [6], 102 % of control.

For `COc1cccc(C(Nc2nncs2)Nc2nncs2)c1`, the T/C is, setting by setting: under setting [14], 97 % of control; under setting [15], 97 % of control; under setting [16], 122 % of control.
